Source: ChEMBL document CHEMBL4425190, “Rat intestinal sucrase inhibited by minor constituents from the leaves and twigs of Archidendron clypearia (Jack.) Nielsen” (Bioorg Med Chem Lett, 2016)

target: Sucrase-isomaltase, intestinal (Rattus norvegicus) (UniProt P23739); conditions: 0.02 mM
Sequence (P23739 1-1013 limits assumed): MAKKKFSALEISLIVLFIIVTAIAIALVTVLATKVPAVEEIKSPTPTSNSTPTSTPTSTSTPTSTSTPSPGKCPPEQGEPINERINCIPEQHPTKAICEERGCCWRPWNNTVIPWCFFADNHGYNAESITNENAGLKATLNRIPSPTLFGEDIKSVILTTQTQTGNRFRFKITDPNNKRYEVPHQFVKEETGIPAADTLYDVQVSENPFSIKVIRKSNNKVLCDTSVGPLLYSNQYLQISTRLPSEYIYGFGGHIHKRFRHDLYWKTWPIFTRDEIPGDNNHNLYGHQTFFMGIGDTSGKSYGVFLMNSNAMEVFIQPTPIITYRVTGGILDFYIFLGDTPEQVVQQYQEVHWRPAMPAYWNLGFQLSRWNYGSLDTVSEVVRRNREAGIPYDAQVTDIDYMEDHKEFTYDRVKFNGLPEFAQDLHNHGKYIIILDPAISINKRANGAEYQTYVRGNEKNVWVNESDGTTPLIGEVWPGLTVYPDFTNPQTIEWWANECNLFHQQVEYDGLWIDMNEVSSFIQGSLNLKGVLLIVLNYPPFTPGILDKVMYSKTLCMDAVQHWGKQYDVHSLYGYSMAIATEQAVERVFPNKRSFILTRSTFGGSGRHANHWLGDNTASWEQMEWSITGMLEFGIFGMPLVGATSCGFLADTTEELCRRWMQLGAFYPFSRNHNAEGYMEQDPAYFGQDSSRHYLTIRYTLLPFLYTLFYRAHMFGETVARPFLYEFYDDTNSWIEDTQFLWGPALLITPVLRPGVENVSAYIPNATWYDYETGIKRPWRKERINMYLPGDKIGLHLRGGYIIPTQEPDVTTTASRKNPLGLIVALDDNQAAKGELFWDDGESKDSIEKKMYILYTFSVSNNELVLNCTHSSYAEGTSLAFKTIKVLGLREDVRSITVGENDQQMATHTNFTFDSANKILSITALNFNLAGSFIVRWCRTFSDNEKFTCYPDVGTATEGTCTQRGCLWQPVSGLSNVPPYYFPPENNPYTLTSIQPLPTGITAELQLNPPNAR
Sequence (P23739 1014-1841 limits assumed): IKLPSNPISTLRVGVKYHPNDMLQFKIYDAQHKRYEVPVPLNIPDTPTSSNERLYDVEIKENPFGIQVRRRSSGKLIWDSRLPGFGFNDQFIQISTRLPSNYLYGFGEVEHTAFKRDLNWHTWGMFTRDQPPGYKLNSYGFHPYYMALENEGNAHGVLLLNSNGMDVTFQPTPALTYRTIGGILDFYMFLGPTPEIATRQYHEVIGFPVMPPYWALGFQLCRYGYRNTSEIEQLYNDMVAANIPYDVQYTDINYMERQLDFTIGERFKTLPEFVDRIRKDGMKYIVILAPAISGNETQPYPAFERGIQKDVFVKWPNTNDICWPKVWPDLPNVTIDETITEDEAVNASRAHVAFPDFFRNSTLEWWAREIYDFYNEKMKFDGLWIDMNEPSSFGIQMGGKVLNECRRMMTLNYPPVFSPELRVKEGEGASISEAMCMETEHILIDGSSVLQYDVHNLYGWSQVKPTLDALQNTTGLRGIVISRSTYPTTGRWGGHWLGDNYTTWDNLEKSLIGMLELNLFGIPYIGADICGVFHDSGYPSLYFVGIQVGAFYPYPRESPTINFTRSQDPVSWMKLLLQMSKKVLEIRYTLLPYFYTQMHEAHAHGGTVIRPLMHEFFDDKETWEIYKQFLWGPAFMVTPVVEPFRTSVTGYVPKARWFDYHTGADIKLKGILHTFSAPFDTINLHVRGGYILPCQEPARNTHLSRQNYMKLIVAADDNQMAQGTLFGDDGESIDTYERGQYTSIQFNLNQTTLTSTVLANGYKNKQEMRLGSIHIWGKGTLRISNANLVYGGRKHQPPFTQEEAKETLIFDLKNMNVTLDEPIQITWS
Description: Inhibition of rat small intestinal sucrase using sucrose as substrate assessed as amount of liberated glucose at 0.02 mM after 30 mins by glucose oxidase method

With C[C@H]1O[C@H](O[C@H]2[C@H](O)[C@@H](O)[C@@H](O[C@H]3[C@H](O)[C@@H](O)C(O)O[C@@H]3CO)O[C@@H]2CO)[C@H](O)[C@@H](O)[C@@H]1N[C@H]1C=C(CO)[C@@H](O)[C@H](O)[C@H]1O (stereo not given in full) the inhibition was 89.5%.

target: Sucrase-isomaltase, intestinal (Rattus norvegicus) (UniProt P23739); test: Inhibition of rat small intestinal sucrase using sucrose as substrate assessed as amount of liberated glucose at 1 mM after 30 mins by glucose oxidase method; conditions: not given

Going from COc1cc([C@@H]2c3c(cc(OC)c(O)c3OC)C[C@H](CO)[C@H]2CO[C@@H]2O[C@H](CO)[C@@H](O)[C@H](O)[C@H]2O)cc(OC)c1O to COc1cc([C@H]2c3c(cc(OC)c(O)c3OC)C[C@H](CO)[C@H]2CO[C@@H]2O[C@H](CO)[C@@H](O)[C@H](O)[C@H]2O)cc(OC)c1O, the inhibition falls from 66.3% to 10.8%.

Going from COc1cc([C@H]2OC[C@H]3[C@@H]2CO[C@@H]3c2ccc(O)c(OC)c2)ccc1O to COc1cc(C[C@H]2CO[C@H](c3cc(OC)c(O)c(OC)c3)[C@H]2CO[C@@H]2O[C@H](CO)[C@@H](O)[C@H](O)[C@H]2O)cc(OC)c1O, the inhibition rises from 51.3% to 81.6%.

First: COc1cc([C@H]2c3c(cc(OC)c(O)c3OC)C[C@H](CO)[C@H]2CO)cc(OC)c1O
Second: COc1cc(/C=C/CO)cc(OC)c1O[C@H]1O[C@H](CO)[C@@H](O)[C@H](O)[C@H]1O
The inhibition of the first is higher: 57.5% for the first, 14.6% for the second.

Compared with CC1=CC(=O)CC(C)(C)C1/C=C/[C@@H](C)O[C@@H]1O[C@H](CO[C@@H]2OC[C@](O)(CO)[C@H]2O)[C@@H](O)[C@H](O)[C@H]1O (stereo not given in full), CC1=CC(=O)CC(C)(C)[C@@]1(O)/C=C/[C@@H](C)O[C@@H]1O[C@H](CO[C@@H]2OC[C@](O)(CO)[C@H]2O)[C@@H](O)[C@H](O)[C@H]1O is higher in inhibition: 13.6% for the first, 35.1% for the second.

Going from C[C@](O)(CC(=O)O)CC(=O)O[C@@H]1[C@@H](O)[C@H](OCc2ccccc2)O[C@H](CO)[C@H]1O to N#C[C@H](O[C@@H]1O[C@H](CO[C@@H]2O[C@H](CO)[C@@H](O)[C@H](O)[C@H]2O)[C@@H](O)[C@H](O)[C@H]1O)c1ccccc1, the inhibition falls from 88.4% to 50.4%.

Going from CC1=CC(=O)CC(C)(C)[C@@]1(O)/C=C/[C@@H](C)O[C@@H]1O[C@H](CO)[C@@H](O)[C@H](O)[C@H]1O to CC(=O)OC[C@H]1O[C@@H](O[C@H](C)/C=C/[C@@]2(O)C(C)=CC(=O)CC2(C)C)[C@H](O)[C@@H](O)[C@@H]1O, the inhibition rises from 23.7% to 29.8%.

First: COc1cc(/C=C/CO)cc(O[C@@H]2O[C@H](CO)[C@@H](O)[C@H](O)[C@H]2O[C@@H]2OC[C@](O)(CO)[C@H]2O)c1OC
Second: COc1cc(/C=C/CO)ccc1O[C@@H]1O[C@H](CO)[C@@H](O)[C@H](O)[C@H]1O
The inhibition of the first is higher: 31.3% for the first, 11% for the second.
